Reference: US20160242416A1, “FUNGICIDAL ISOXAZOLINE CARBINOLS” (E I DU PONT DE NEMOURS AND COMPANY, priority 2015, published 2016)

Columns and labels:
[1] = tested on: Puccinia recondita f sp. tritici; assay: Test F: wheat leaf rust, preventive spray on wheat seedlings; conditions: 100 = 100% disease control; for Test F rating (% disease control): wheat leaf rust, 0 = no control; for Test F disease control rating: 0 = no control relative to controls
Excerpt: (§1) General protocol for preparing test solutions for Tests A-G: the test compounds were first dissolved in acetone in an amount equal to 3% of the final volume and then suspended at the desired concentration (in ppm) in acetone and purified water (50/50 mix by volume) containing 250 ppm of the surfactant PEG400 (polyhydric alcohol esters). The resulting test suspensions were then used in Tests A-G. Compounds were sprayed at a concentration of 50 ppm (*) or 10 ppm to the point of run-off on the test plants, the equivalent of a rate of 200 g/ha or 40 g/ha, respectively.
The test solution was sprayed to the point of run-off on wheat seedlings. The following day the seedlings were inoculated with a spore suspension of Puccinia recondita f sp. tritici; (the causal agent of wheat leaf rust) and incubated in a saturated atmosphere at 20° C. for 24 h, and then moved to a growth chamber at 20° C. for 6 days, after which time visual disease ratings were made.
A dash (-) indicates no test results. Compounds with an asterisks (*) were applied at a concentration of 50 ppm, otherwise test solutions were applied at 10 ppm.

Botrytis cinerea = assay: Test B: gray mold, preventive spray on tomato seedlings; conditions: 100 = 100% disease control; for Test B rating (% disease control): gray mold on tomato, 0 = no control; for Test B disease control rating: 0 = no control relative to controls
[2] = tested on: Erysiphe graminis f sp. tritici; assay: Test G: wheat powdery mildew, preventive spray on wheat seedlings; conditions: 100 = 100% disease control; for Test G rating (% disease control): wheat powdery mildew, 0 = no control; for Test G disease control rating: 0 = no control relative to controls
Excerpt: as §1
The test solution was sprayed to the point of run-off on wheat seedlings. The following day the seedlings were inoculated with a spore dust of Erysiphe graminis f sp. tritici, (the causal agent of wheat powdery mildew) and incubated in a growth chamber at 20° C. for 8 days, after which time visual disease ratings were made.
Compounds with an asterisks (*) were applied at a concentration of 50 ppm, otherwise test solutions were applied at 10 ppm.

Stagonospora nodorum = assay: Test D: wheat glume blotch, preventive spray on wheat seedlings; conditions: 100 = 100% disease control; for Test D rating (% disease control): wheat glume blotch, 0 = no control; for Test D disease control rating: 0 = no control relative to controls
Phytophthora infestans = format: in vivo; conditions: 100 = 100% disease control; for Test C rating (% disease control): 50 ppm (asterisk), tomato late blight, 0 = no control; for Test C disease control rating: 50 ppm test solution (asterisked compounds), 0 = no control relative to controls
Zymoseptoria tritici = assay: Test E: wheat leaf blotch, preventive spray on wheat seedlings; conditions: 100 = 100% disease control; for Test E rating (% disease control): wheat leaf blotch, 0 = no control; for Test E disease control rating: 0 = no control relative to controls
[3] = 50 ppm test solution (asterisked compounds)

Row | SMILES | Test F rating (% disease control) ([1]; 50 ppm (asterisk)) [%] | Test B rating (% disease control) (Botrytis cinerea; 50 ppm (asterisk)) [%] | Test G rating (% disease control) ([2]; 50 ppm (asterisk)) [%] | Test D rating (% disease control) (Stagonospora nodorum; 50 ppm (asterisk)) [%] | Test C rating (% disease control) (Phytophthora infestans) [%] | Test E rating (% disease control) (Zymoseptoria tritici; 50 ppm (asterisk)) [%] | further results
1 | OC(Cn1cncn1)(C1=NOC(Cc2ccccc2)C1)c1ccc(Cl)cc1 (single isomer, unassigned) [Compound 136] | 100 | 92 | 100 | 100 | 0 | 83 | 
2 | OC(Cn1cncn1)(C1=NOC(c2ccc(Cl)cc2)C1)c1ccc(F)cc1F (single isomer, unassigned) [Compound 130] | 100 | 14 | 100 | 100 | 0 | 11 | 
3 | CC(C)(C)C(O)(Cn1cncn1)C1=NOC(c2ccc(Cl)cc2)C1 (single isomer, unassigned) [Compound 132] | 100 | 99 | 100 | 100 | 0 | 81 | 
4 | OC(Cn1cncn1)(C1=NOC(c2ccccc2)C1)c1ccccc1 (mixture of isomers) [Compound 115] | 68 | 51 | 99 | 100 | 0 | 0 | 
5 | OC(Cn1cncn1)(C1=NOC(c2c(F)cccc2F)C1)c1ccccc1 (mixture of isomers) [Compound 1] | 99 | 0 | 100 | 99 | 0 | 18 | 
6 | CC1(c2ccc(Cl)cc2)CC(C(O)(Cn2cncn2)c2ccccc2)=NO1 (single isomer, unassigned) [Compound 210] | 100 | 0 | 100 | 100 | 0 | 41 | 
7 | OC(Cn1cncn1)(C1=NOC(c2ccc(Cl)cc2)C1)c1ccccc1 (mixture of isomers) [Compound 117] | 99 | 61 | 98 | 100 | 0 | 11 | 
8 | OC(Cn1cncn1)(C1=NOC(c2ccccc2)(C(F)(F)F)C1)c1ccc(Cl)cc1 (single isomer, unassigned) [Compound 215] |  |  |  |  |  |  | Test F disease control rating [1, 3]: 100%; Test B disease control rating (Botrytis cinerea; [3]): 0%; Test G disease control rating [2, 3]: 100%; Test D disease control rating (Stagonospora nodorum; [3]): 0%; Test C disease control rating (Phytophthora infestans): 0%; Test E disease control rating (Zymoseptoria tritici; [3]): 0%
9 | OC(Cn1cncn1)(C1=NOC(c2ccc(F)cc2)C1)c1ccc(F)cc1 (single isomer, unassigned) [Compound 119] | 41 | 0 | 100 |  | 0 | 0 | 
10 | OC(Cn1cncn1)(C1=NOC(c2ccc(Cl)cc2)C1)c1ccc(F)cc1F (single isomer, unassigned) [Compound 131] | 100 | 0 | 100 | 100 | 0 | 5 | 
11 | OC(Cn1cncn1)(C1=NOC(c2ccc(F)cc2)C1)c1ccccc1 (mixture of isomers) [Compound 116] | 80 | 0 | 99 | 100 | 0 | 0 | 
12 | OC(Cn1cncn1)(C1=NOC(c2ccccc2F)C1)c1ccccc1 (mixture of isomers) [Compound 118] | 89 | 68 | 99 | 100 | 0 | 0 | 
13 | CC1(c2ccc(Cl)cc2)CC(C(O)(Cn2cncn2)c2ccccc2)=NO1 (single isomer, unassigned) [Compound 211] | 28 | 0 | 76 | 0 | 0 | 0 | 
14 | CC(C)(C)C(O)(Cn1cncn1)C1=NOC(c2ccc(Cl)cc2)C1 (single isomer, unassigned) [Compound 133] | 100 | 95 | 99 | 100 | 0 | 88 | 
15 | OC(Cn1cncn1)(C1=NOC(c2ccccc2)(C(F)(F)F)C1)c1ccc(Cl)cc1 (single isomer, unassigned) [Compound 214] |  |  |  |  |  |  | Test F disease control rating [1, 3]: 25%; Test B disease control rating (Botrytis cinerea; [3]): 0%; Test G disease control rating [2, 3]: 99%; Test D disease control rating (Stagonospora nodorum; [3]): 0%; Test C disease control rating (Phytophthora infestans): 0%; Test E disease control rating (Zymoseptoria tritici; [3]): 1%
16 | CC(C)(C)C1CC(C(O)(Cn2cncn2)c2ccccc2)=NO1 (single isomer, unassigned) [Compound 125] | 28 | 0 | 89 | 0 | 0 | 0 | 
17 | CC1(c2ccc(Cl)cc2)CC(C(O)(Cn2cncn2)c2ccc(Cl)cc2)=NO1 (single isomer, unassigned) [Compound 213] | 99 | 7 | 96 | 52 | 0 | 0 | 
18 | OC(Cn1cncn1)(C1=NOC(c2ccc(F)cc2)C1)c1ccc(F)cc1 (single isomer, unassigned) [Compound 122] | 100 | 0 | 100 | 100 | 0 | 77 | 
19 | OC(Cn1cncn1)(C1=NOC(c2ccc(Cl)cc2)C1)c1ccc(Cl)cc1 (single isomer, unassigned) [Compound 120] | 100 | 0 | 98 | 95 | 0 | 8 | 
20 | CC1(c2ccc(Cl)cc2)CC(C(O)(Cn2cncn2)c2ccc(Cl)cc2)=NO1 (single isomer, unassigned) [Compound 212] | 100 | 28 | 100 | 96 | 0 | 0 | 
21 | CC(C)(C)C1CC(C(O)(Cn2cncn2)c2ccccc2)=NO1 (single isomer, unassigned) [Compound 124] | 28 | 0 | 96 | 0 | 0 | 6 | 
22 | OC(Cn1cncn1)(C1=NOC(c2ccc(Cl)cc2)C1)c1ccc(Cl)cc1 (single isomer, unassigned) [Compound 123] | 100 | 56 | 100 | 100 | 0 | 100 | 
23 | OC(Cn1cncn1)(C1=NOC(c2ccc(Cl)cc2)C1)C12CC3CC(CC(C3)C1)C2 (single isomer, unassigned) [Compound 40] |  |  |  |  |  |  | Test F rating (% disease control) ([1]; 10 ppm): 55%; Test B rating (% disease control) (Botrytis cinerea; 10 ppm): 0%; Test G rating (% disease control) ([2]; 10 ppm): 48%; Test D rating (% disease control) (Stagonospora nodorum; 10 ppm): 51%; Test E rating (% disease control) (Zymoseptoria tritici; 10 ppm): 0%
24 | OC(Cn1cncn1)(C1=NOC(c2ccc(C(F)(F)F)cc2)C1)c1ccc(C(F)(F)F)cc1 (single isomer, unassigned) [Compound 153] |  |  |  |  |  |  | Test F rating (% disease control) ([1]; 10 ppm): 100%; Test B rating (% disease control) (Botrytis cinerea; 10 ppm): 0%; Test G rating (% disease control) ([2]; 10 ppm): 100%; Test D rating (% disease control) (Stagonospora nodorum; 10 ppm): 0%; Test E rating (% disease control) (Zymoseptoria tritici; 10 ppm): 93%
25 | OC(Cn1cncn1)(C1=NOC2c3ccccc3CCC12)c1ccc(Cl)cc1 (centres unmarked) [Compound 222] |  |  |  |  |  |  | Test F disease control rating ([1]; 10 ppm test solution): 100%; Test B disease control rating (Botrytis cinerea; 10 ppm test solution): 9%; Test G disease control rating ([2]; 10 ppm test solution): 99%; Test D disease control rating (Stagonospora nodorum; 10 ppm test solution): 50%; Test E disease control rating (Zymoseptoria tritici; 10 ppm test solution): 23%
